Measured values taken from patent US12655173B2, “Hybrid amide derivatives of amphotericin B” (priority 2020, dated 2026).
≈ marks a conversion by molar mass, not a printed value.

Columns and labels:
[1] = In vivo mouse pharmacokinetics (IV, CD-1 mice)
Protocol: Mouse PK (FIG. 2): The experiment was performed using the compounds synthesized in lab and purified by preparative HPLC (>91%). All the compounds were dissolved in D5W (5% dextrose in water) at for IV injection. Female CD-1 mice were (3 per group; body weight approx. 30 g each) injected with the compounds (as per planned dosage) and the blood samples were collected at different time points and the compound content was analysed using the following procedure. • Instrument: Triple Quad 6500+ • Matrix […] CD-1 mouse plasma (EDTA-K2) • Analyte(s): Compound 1 • Internal standard(s): 100 ng/mL Labetalol & 100 ng/mL Tolbutamide in ACN • MS conditions ESI: positive • SRM detection • Compound 1: [M+H]+m/z 979.8>798.4 • Labelatol (IS): [M+H]+m/z 329.2>162.1 • UPLC conditions • Mobile Phase A: 0.1% FA in Water • Mobile Phase B: 0.1% FA in ACN
An aliquot of 90 μL supernatant was transferred to sample plate and mixed with 60 μL water, then the plate was shaken at 800 rpm for 10 min, 15.0 μL supernatant was injected for LC-MS/MS analysis. • Calibration curve: • 1.00-3000 ng/ml, for Compound 1 in female CD-1 mouse plasma (EDTA-K2)

[2] = test system: Candida glabrata; assay: MIC against yeasts; type: cell-based; settings: Nakaseomyces glabratus; 5 isolates; Table 3A
[3] = test system: Epidermophyton floccosum; assay: MIC against yeasts (Table 3A); type: cell-based; settings: 2 isolates
[4] = test system: Trichophyton rubrum; assay: MIC against yeasts (Table 3A); type: cell-based; settings: 3 isolates
[5] = test system: Microsporum canis; assay: MIC against yeasts (Table 3A); type: cell-based; settings: 2 isolates
[6] = test system: Candida tropicalis; assay: MIC against yeasts; type: cell-based; settings: 10 isolates, Table 3A
[7] = test system: A. funigatus (CEA10 strain); assay: Efficacy study against pulmonary aspergillosis in neutropenic mice: survival; type: in vivo; settings: 15 mg/kg QD IP for 7 days, monitored until day 14
Source text: Efficacy study (FIG. 22): Healthy mice were divided as 10 mice/group. […] Animals were infected with A. funigatus (CEA10 strain) (intranasal) on day 0. […] Survivability of the animals were monitored during the course of the study.

[8] = test system: Candida albicans; assay: MIC against yeasts; type: cell-based; settings: 15 isolates, Table 3A
[9] = test system: Malassezia furfur; assay: MIC against yeasts (Table 3A); type: cell-based; settings: 3 isolates
[10] = test system: KIM1, LCN2, TIMP1, SPP1; settings: mouse, in vivo

Row | Structure (SMILES) | In vivo PK AUC0-inf (ng*hr/mL) ([1]; 1 mg/kg) | In vivo PK Cl ([1]; 1 mg/kg) | In vivo PK T1/2, ([1]; 1 mg/kg) | In vivo PK AUC0-inf ([1]; 5 mg/kg) | In vivo PK Cl ([1]; 5 mg/kg) | In vivo PK T1/2, ([1]; 5 mg/kg) | MIC [2] | MIC [3] | MIC [4] | MIC [5] | MIC [6] | Survival [7] | MIC [8] | MIC [9] | Renal toxicity biomarkers KIM1, LCN2, TIMP1, SPP1 [10]
1 | CC1C=CC=CC=CC=CC=CC=CC=CC(OC2OC(C)C(O)C(N)C2O)CC2OC(O)(CC(O)CC(O)C(O)CCC(O)CC(O)CC(=O)OC(C)C(C)C1O)CC(O)C2C(=O)NC(CO)CO (stereo not drawn) [Compound 1] | 18785] ng*hr/mL | 0.891 mL/min/kg | 8.37 h | 79575 ng·h/mL | 1.05 mL/min/kg | 9.6 h |  |  |  |  |  |  |  |  | 
2 | C[C@@H]1[C@H](O)[C@@H](C)/C=C/C=C/C=C/C=C/C=C/C=C/C=C/[C@H](OC2O[C@H](C)[C@@H](O)[C@H](N)[C@@H]2O)C[C@@H]2O[C@](O)(C[C@@H](O)C[C@@H](O)[C@H](O)CC[C@@H](O)C[C@@H](O)CC(=O)O[C@H]1C)C[C@H](O)[C@H]2C(=O)O (stereo partly drawn) [AmB, Amphotericin B] |  |  |  |  |  |  | 1.4 µM (≈ 1.29 µg/mL) | 0.38 µM (≈ 0.351 µg/mL) | 1.1 µM (≈ 1.02 µg/mL) | 0.56 µM (≈ 0.517 µg/mL) | 0.8 µM (≈ 0.739 µg/mL) | 80% | 0.61 µM (≈ 0.564 µg/mL) | > 16 µM | elevated
